26 compounds from patent US8937189B2, “Tri-substituted 2-benzhydryl-5-benzylamino-tetrahydro-pyran-4-ol and 6-benzhydryl-4-benzylamino-tetrahydro-pyran-3-ol analogues, and novel 3,6-disubstituted pyran derivatives” (Wayne State University, priority 2004, dated 2015) can be followed below.

Structures can show the parent of a compound that is named as a salt.

By melting point is commonly meant the temperature of the solid-liquid transition. The term IC50 denotes the concentration that inhibits the measured activity by half. Read a low IC50 as greater potency.

One data set deals with T1, NET (Rattus norvegicus, UniProt Q63380).
T1 construct: from tissue
Briefly: Inhibition of [3H]NE uptake by NET. The note with it: text summary of Table 4. Type of data set: biochemical.

For another data set, the target named is T2, SERT (Rattus norvegicus, UniProt P31652).
T2 construct: from tissue
Briefly: Inhibition of [3H]5-HT uptake by SERT. Type of data set: biochemical. Conditions: text summary of Table 4.

The next data set has as its system rat NET. Kind of data set: Inhibition of [3H]nisoxetine binding to NET. The note with it: Table 3; selectivity ratio of IC50 values. As to the method:
(§1) Briefly, rat striatum was the source for DAT, and cerebral cortex for SERT and NET. […] Test compounds were dissolved in dimethyl sulfoxide (DMSO) and diluted out in 10% (v/v) DMSO. […] At lease five triplicate concentrations of each test compound were studied, spaced evenly around the IC50 value. For DAT uptake assays, uptake of 50 nM [^3H]DA into rat striatal synaptosomes was measured exactly as described by us previously. Briefly, rat striatal P2 membrane fractions were incubated with test compounds for 8 min followed by the additional presence of [^3H]DA for 4 min at 25?. […] Construction of inhibition curves and dissolvement of test compounds were as described above.

A further data set deals with T3, rat DAT (Rattus norvegicus, UniProt P23977).
T3 construct: rat striatum was the source for DAT, and cerebral cortex for SERT and NET; from tissue; host or cells: rat striatum (P2 membrane fractions / synaptosomes for uptake)
Kind of data set: Inhibition of [3H]WIN 35,428 binding to DAT. As to the method:
as §1

In another data set the target is T4, rat SERT (Rattus norvegicus, UniProt P31652).
T4 construct: rat striatum was the source for DAT, and cerebral cortex for SERT and NET; from tissue; host or cells: rat cerebral cortex
Kind of data set: Inhibition of [3H]citalopram binding to SERT. As to the method: as §1

In a further data set the target is T5, DAT (Rattus norvegicus, UniProt P23977).
T5 construct: rat striatum was the source for DAT, and cerebral cortex for SERT and NET; from tissue; host or cells: rat striatum (P2 membrane fractions / synaptosomes for uptake)
Kind of data set: Inhibition of [3H]DA uptake by DAT into rat striatal synaptosomes. It counts as biochemical. The note with it: DAT binding vs DA uptake. How it is done: as §1

T3 sequence (P23977 whole entry): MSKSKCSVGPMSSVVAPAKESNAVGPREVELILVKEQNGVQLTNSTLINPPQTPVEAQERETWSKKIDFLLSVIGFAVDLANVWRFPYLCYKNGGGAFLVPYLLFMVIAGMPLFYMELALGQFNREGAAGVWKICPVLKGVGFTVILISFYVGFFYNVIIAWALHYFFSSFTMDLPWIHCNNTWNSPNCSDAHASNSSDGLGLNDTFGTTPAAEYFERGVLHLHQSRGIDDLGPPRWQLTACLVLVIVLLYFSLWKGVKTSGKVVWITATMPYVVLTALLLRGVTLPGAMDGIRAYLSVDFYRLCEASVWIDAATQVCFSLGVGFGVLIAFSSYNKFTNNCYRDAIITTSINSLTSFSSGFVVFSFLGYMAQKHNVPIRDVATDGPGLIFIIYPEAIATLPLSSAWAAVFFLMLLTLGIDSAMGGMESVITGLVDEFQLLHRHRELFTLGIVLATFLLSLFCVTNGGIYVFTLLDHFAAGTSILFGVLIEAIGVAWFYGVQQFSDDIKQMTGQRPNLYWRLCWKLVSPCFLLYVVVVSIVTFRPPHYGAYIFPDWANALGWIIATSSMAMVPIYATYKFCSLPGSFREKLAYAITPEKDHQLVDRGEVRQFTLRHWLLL
T2 sequence (P31652 whole entry): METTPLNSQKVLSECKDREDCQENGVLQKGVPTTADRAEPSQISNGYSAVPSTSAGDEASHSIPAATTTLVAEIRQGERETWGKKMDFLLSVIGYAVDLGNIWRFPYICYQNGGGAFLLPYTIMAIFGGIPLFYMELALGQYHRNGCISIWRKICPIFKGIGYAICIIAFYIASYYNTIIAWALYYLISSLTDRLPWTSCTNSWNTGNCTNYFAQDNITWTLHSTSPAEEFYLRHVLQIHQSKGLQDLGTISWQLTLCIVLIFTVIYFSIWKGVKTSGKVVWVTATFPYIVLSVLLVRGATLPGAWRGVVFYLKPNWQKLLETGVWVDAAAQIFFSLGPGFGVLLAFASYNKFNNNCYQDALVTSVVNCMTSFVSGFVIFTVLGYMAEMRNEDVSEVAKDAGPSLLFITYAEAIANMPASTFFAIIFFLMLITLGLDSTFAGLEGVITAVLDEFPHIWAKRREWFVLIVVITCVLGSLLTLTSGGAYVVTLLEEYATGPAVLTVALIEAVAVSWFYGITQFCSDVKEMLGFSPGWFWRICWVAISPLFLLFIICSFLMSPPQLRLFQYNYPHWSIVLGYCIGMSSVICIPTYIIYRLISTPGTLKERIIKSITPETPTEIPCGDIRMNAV
T1 sequence (Q63380 1-617): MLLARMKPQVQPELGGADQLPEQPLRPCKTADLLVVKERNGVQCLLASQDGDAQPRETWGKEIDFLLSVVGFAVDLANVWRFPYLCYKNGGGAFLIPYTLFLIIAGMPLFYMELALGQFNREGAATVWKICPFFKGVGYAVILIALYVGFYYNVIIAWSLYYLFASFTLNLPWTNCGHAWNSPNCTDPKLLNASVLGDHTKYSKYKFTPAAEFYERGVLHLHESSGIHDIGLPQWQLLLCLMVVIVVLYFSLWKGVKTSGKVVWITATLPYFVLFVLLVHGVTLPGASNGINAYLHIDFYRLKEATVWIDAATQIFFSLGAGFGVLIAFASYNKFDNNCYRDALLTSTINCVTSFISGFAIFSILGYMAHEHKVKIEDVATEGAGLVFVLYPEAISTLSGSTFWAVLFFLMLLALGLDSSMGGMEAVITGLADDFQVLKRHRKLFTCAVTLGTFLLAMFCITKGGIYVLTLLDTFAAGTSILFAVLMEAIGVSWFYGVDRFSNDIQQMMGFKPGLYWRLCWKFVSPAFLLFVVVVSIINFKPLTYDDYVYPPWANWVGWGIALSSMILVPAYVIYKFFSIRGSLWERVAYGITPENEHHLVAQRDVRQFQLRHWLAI
T5 sequence (P23977 whole entry): as the sequence (P23977 whole entry) above
T4 sequence (P31652 whole entry): as the sequence (P31652 whole entry) above

Take `COc1ccc(CN[C@@H]2CO[C@H](C(c3ccccc3)c3ccccc3)C[C@H]2O)cc1` [(−)-29a, (2S,4R,5R)-2-benzhydryl-5-(4-methoxy-benzylamino)-tetrahydropyran-4-ol]: the “Blockade of NET, in words” value at NET is recorded as “potent blockers”. Further, the “Blockade of SERT, in words” value at SERT is “potent blockers”.

As to `Ic1ccc(CN[C@H]2CC[C@@H](C(c3ccccc3)c3ccccc3)OC2)cc1` (relative stereo) [Compound 16m, Cis-(6-benzhydryl-tetrahydropyran-3-yl)-(4-iodo-benzyl)-amine], the “NET binding/DAT binding” value in the data set on rat NET worked out at 0.73.

Regarding `COc1ccc(CN[C@@H]2CO[C@H](C(c3ccccc3)c3ccccc3)C[C@H]2O)c(OC)c1` [(−)-29e, (2S,4R,5R)-2-benzhydryl-5-(2,4-dimethoxy-benzylamino)-tetrahydropyran-4-ol], the “Blockade of NET, in words” value at NET is given as “potent blockers”. Moreover, the “Blockade of SERT, in words” value at SERT is “potent blockers”.

Regarding `c1ccc(C(c2ccccc2)[C@@H]2CC[C@H](NCc3ccc4[nH]ccc4c3)CO2)cc1` (relative stereo) [Compound 16n, Cis-(6-benzhydryl-tetrahydropyran-3-yl)-(1H-iodo-5-ylmethyl)-amine], in the data set with rat NET, the “NET binding/DAT binding” value was determined as 0.09.

For the compound `O[C@@H]1C[C@@H](C(c2ccccc2)c2ccccc2)OC[C@H]1NCc1ccc2[nH]ccc2c1` [(−)-32b, (2S,4R,5R)-2-benzhydryl-5-[(1H-indol-5-ylmethyl)-amino]-tetrahydropyran-4-ol], on NET, the “Blockade of NET, in words” value is listed as “potent blockers”. In addition, the “Blockade of SERT, in words” value at SERT is reported as “potent blockers”.

In the case of `Fc1ccc(CN[C@H]2CC[C@@H](C(c3ccccc3)c3ccccc3)OC2)cc1F` (relative stereo) [Compound 16j, Cis-(6-benzhydryl-tetrahydropyran-3-yl)-(3,4-difluoro-benzyl)-amine], the “NET binding/DAT binding” value in the data set with rat NET is on record as 1.9.

In the case of `COc1ccc(CN[C@H]2C[C@H](C(c3ccccc3)c3ccccc3)OC[C@H]2O)cc1` (as salt: oxalate) [(+)-29g, (3S,4S,6R)-6-benzhydryl-4-(4-methoxy-benzylamino)-tetrahydro-pyran-3-ol], the melting point is 235 to 237 °C.

Consider `c1ccc(C(c2ccccc2)C2CCC(NCc3c[nH]c4ccccc34)CO2)cc1` (stereo not drawn) [Compound 16f, Cis-(6-benzhydryl-tetrahydropyran-3-yl)-(3-indole-methyl)-amine], for which, in the data set on rat NET, the “NET binding/DAT binding” value worked out at 2.3.

In the case of `Oc1ccc(CN[C@@H]2CC[C@H](C(c3ccccc3)c3ccccc3)OC2)cc1` [(+)-37a, cis-(3R,6R)-(6-benzhydryl-tetrahydropyran-3-yl)-(4-hydroxy-benzyl)-amine], the “Blockade of NET, in words” value at NET is listed as “selective blockers for NET”.

For the compound `c1ccc(C(c2ccccc2)C2CCC(NCc3cc4ccccc4[nH]3)CO2)cc1` (stereo not drawn) [Compound 16g, Cis-(6-benzhydryl-tetrahydropyran-3-yl)-(2-indole-methyl)-amine], the “NET binding/DAT binding” value in the data set with rat NET was found to be 1.8. In addition, the “Fold more active at DAT compared to 16f” value at rat DAT (DAT binding, 227 vs. 794 nM) stood at 3.5 fold.

On to `O[C@@H]1C[C@@H](C(c2ccccc2)c2ccccc2)OC[C@H]1NCc1ccccc1` [(−)-29d, (2S,4R,5R)-2-benzhydryl-5-benzylamino-tetrahydro-pyran-4-ol], for which the “Blockade of NET, in words” value on NET is recorded as “selective blockers for NET”.

`Fc1ccc(CN[C@H]2CCO[C@@H](C(c3ccccc3)c3ccccc3)C2)cc1` (relative stereo) [Compound 7a, cis-(2-benzhydryl-tetrahydropyran-4-yl)-(4-fluorobenzyl)-amine]: the “NET binding/DAT binding” value with rat NET worked out at 3.9.

`Clc1ccc(CN[C@H]2CC[C@@H](C(c3ccccc3)c3ccccc3)OC2)cc1Cl` (relative stereo) [Compound 16i, Cis-(6-benzhydryl-tetrahydropyran-3-yl)-(3,4-dichloro-benzyl)-amine]: the “NET binding/DAT binding” value in the data set on rat NET came out at 0.36.

Turning to `Oc1ccc(CN[C@H]2CO[C@@H](C(c3ccccc3)c3ccccc3)C[C@@H]2O)cc1` [(+)-32a, (2R,4S,5S)-2-benzhydryl-5-(4-hydroxy-benzylamino)-tetrahydro-pyran-4-ol], at NET, the “Blockade of NET, in words” value is “selective blockers for NET”.

Take `c1ccc(CN[C@H]2CC[C@@H](C(c3ccccc3)c3ccccc3)NC2)cc1` [Compound 1a, reference compound]: the figures for the IC50 on rat DAT and at rat SERT were 0.114 µM and 2.13 ± 0.11 µM, respectively.

For the compound `O[C@@H]1C[C@@H](C(c2ccccc2)c2ccccc2)OC[C@H]1NCc1ccc(F)cc1` [(−)-29b, (2S,4R,5R)-2-benzhydryl-5-(4-fluoro-benzylamino)-tetrahydro-pyran-4-ol], at NET, the “Blockade of NET, in words” value is on record as “selective blockers for NET”.

In the case of `COc1cc(CN[C@@H]2CO[C@H](C(c3ccccc3)c3ccccc3)C[C@H]2O)cc(OC)c1` [(−)-29f, (2S,4R,5R)-2-benzhydryl-5-(3,5-dimethoxy-benzylamino)-tetrahydropyran-4-ol], the “Blockade of NET, in words” value at NET is on record as “potent blockers”. For the same compound, the “Blockade of SERT, in words” value at SERT was “potent blockers”.

Compound `Oc1ccc(CN[C@H]2CC[C@@H](C(c3ccccc3)c3ccccc3)OC2)cc1` (relative stereo) (as salt: oxalate) [Compound 16h, Cis-(6-benzhydryl-tetrahydropyran-3-yl)-(4-hydroxy-benzyl)-amine] gave a melting point of 136 to 138 °C.

As for `O[C@@H]1CO[C@@H](C(c2ccccc2)c2ccccc2)C[C@@H]1NCc1ccccc1` (as salt: oxalate) [(+)-29h, (3S,4S,6R)-6-benzhydryl-4-benzylamino-tetrahydropyran-3-ol], the melting point was in the range of 259 to 260 °C.

Take `N[C@H]1CC[C@@H](C(c2ccccc2)c2ccccc2)OC1` (relative stereo) [Compound 15, Cis-(6-benzhydryl-tetrahydropyran-3-yl)-amine]: at rat DAT, the “Activity at the DAT, in words” value is listed as “little or no activity at the DAT”.

Consider `Fc1ccc(CN[C@H]2CC[C@@H](C(c3ccccc3)c3ccccc3)OC2)cc1` (relative stereo) [Compound 16b, Cis-(6-benzhydryl-tetrahydropyran-3-yl)-(4-fluoro-benzyl)-amine], for which the “NET binding/DAT binding” value with rat NET stood at 1.4.

As to `Oc1ccc(CN[C@@H]2CO[C@H](C(c3ccccc3)c3ccccc3)C[C@H]2O)cc1` [(−)-32a, (2S,4R,5R)-2-benzhydryl-5-(4-hydroxy-benzylamino)-tetrahydropyran-4-ol], the “Blockade of NET, in words” value on NET is given as “selective blockers for NET”.

The compound `O[C@@H]1CO[C@H](C(c2ccccc2)c2ccccc2)C[C@H]1NCc1ccccc1` (as salt: oxalate) [(−)-29h, (3S,4R,6S)-6-benzhydryl-4-benzylamino-tetrahydropyran-3-ol] came in with a melting point of 259 to 260 °C.

With `O=[N+]([O-])c1ccc(CN[C@H]2CC[C@@H](C(c3ccccc3)c3ccccc3)OC2)cc1` (relative stereo) [Compound 16d, Cis-(6-benzhydryl-tetrahydropyran-3-yl)-(4-nitro-benzyl)-amine], the “Potency in inhibiting binding versus uptake, in words” value on DAT is reported as “three fold higher potency in inhibiting binding than uptake”.

On to `Oc1ccc(CN[C@H]2CC[C@@H](C(c3ccccc3)c3ccccc3)OC2)cc1` [(−)-37a, cis-(3S,6S)-(6-benzhydryl-tetrahydropyran-3-yl)-(4-hydroxy-benzyl)-amine], for which the “Blockade of NET, in words” value on NET was “potent blockers”. Moreover, the “Blockade of SERT, in words” value at SERT is on record as “potent blockers”.

Turning to `c1ccc(CN[C@H]2CC[C@@H](C(c3ccccc3)c3ccccc3)OC2)cc1` (relative stereo) [Compound 16k, Cis-(6-benzhydryl-tetrahydropyran-3-yl)-benzyl-amine], the “NET binding/DAT binding” value in the data set with rat NET was found to be 0.90.
